Laboratory results taken from paper PMC11046985 (Neuro-Oncology Advances, 2024).

Tests used:
[1] = mouse, 30 mg/kg afatinib, CSF from the dura through the atlanto-occipital membrane; cited from earlier work
[2] = system: U87EGFRvIII human glioblastoma cells; conditions: cited from earlier work
[3] = cited from earlier work
[4] = daily afatinib, recurrent glioblastoma; read-out: Cmax in plasma; cited from earlier work
[5] = parameters: species or system human; conditions: in vivo
Excerpt: The opening of a new cohort followed a standard 3 + 3 dose-escalation design and was guided by assessment of all grade toxicities and trends in adverse events seen in subsequent dosing cycles. […] Safety and clinical data were reviewed through day 28 prior to the opening of each cohort level. DLT was defined as any possible drug-related, clinically relevant, grade 3 or 4 non-hematologic toxicity (except alopecia or unmedicated nausea/vomiting), grade 3 nausea, vomiting, or diarrhea of any duration lasting > 24 hours despite standard prophylaxis and/or treatment, grade 4 diarrhea and vomiting of any duration, grade 3 febrile neutropenia (defined as ANC […] with a single temperature of > 38.3° C or a sustained temperature of ≥ 38.3° C for more than 1 hour), grade 4 febrile neutropenia of any duration, grade 4 neutropenia lasting > 7 days (defined as a neutrophil count of < 500/mm^3), grade 4 thrombocytopenia or thrombocytopenia with clinically significant bleeding, grade 4 anemia of any duration, and any clinically significant toxicity that precluded administration of the next scheduled dose beyond 14 days, or dose reduction for any reason. The maximum tolerated dose (MTD) was defined as the highest dose tested in which fewer than 33% of patients experienced a DLT. Review of study data led to expansion of dose cohort 3 while dose cohort 4 was evaluated. Dose cohort 4 was also expanded in the absence of DLTs. The recommended phase II dose was defined as a dose equal to or below the MTD and accounted for any cumulative or delayed toxicity beyond the DLT observation period.
Safety evaluations of hematology and chemistry were conducted weekly on days 1, 8, and 15 in cycles 1 and 2 and every 2 weeks thereafter. Physical examination, vital signs collection, performance status assessment, neurological exam, and coagulation level occurred at the start of every cycle. An ECG and chest X-ray were performed at baseline prior to starting treatment. Toxicities were assessed using NCI CTCAE version 4.03.

Q: Which “Time of peak concentration in CSF after dosing” value [1] does the source give for `CN(C)C/C=C/C(=O)Nc1cc2c(Nc3ccc(F)c(Cl)c3)ncnc2cc1O[C@H]1CCOC1` [Afatinib] here?
A: one

Q: And the “Inhibitory concentration of 25% (IC25)” value [2]?
A: ~1000 nM

Q: And the “Median concentration of afatinib in CSF” value ([3]; afatinib 40 mg daily, 11 patients, leptomeningeal metastases from NSCLC, steady-state day 8)?
A: 2.9 nM

Q: What about the “Afatinib concentration in the CSF” value ([3]; daily afatinib, case of leptomeningeal carcinomatosis) of the same compound?
A: 0.05 nM

Q: What about the Cmax [4] of the same compound?
A: ~24 nM

Q: And the “Acute kidney injury: % of patients with treatment-related AE” value ([5]; human)?
A: 4.2%

Q: What about the “Acute kidney injury: No. of patients with treatment-related AE” value ([5]; human) of the same compound?
A: 1

Q: And the “Amnesia: % of patients with treatment-related AE” value ([5]; human)?
A: 4.2%

Q: And the “Amnesia: No. of patients with treatment-related AE” value ([5]; human)?
A: 1

Q: And the “Anorexia: % of patients with treatment-related AE” value ([5]; human)?
A: 25%

Q: What about the “Anorexia: No. of patients with treatment-related AE” value ([5]; human) of the same compound?
A: 6

Q: And the “Bilateral blepharitis: % of patients with treatment-related AE” value ([5]; human)?
A: 4.2%

Q: And the “Bilateral blepharitis: No. of patients with treatment-related AE” value ([5]; human)?
A: 1

Q: What about the “Bilateral intermittent leg cramps: % of patients with treatment-related AE” value ([5]; human) of the same compound?
A: 4.2%

Q: What about the “Bilateral intermittent leg cramps: No. of patients with treatment-related AE” value ([5]; human) of the same compound?
A: 1

Q: What about the “Blurred vision: % of patients with treatment-related AE” value ([5]; human) of the same compound?
A: 4.2%

Q: And the “Blurred vision: No. of patients with treatment-related AE” value ([5]; human)?
A: 1

Q: What about the “Candida Intertrigo: % of patients with treatment-related AE” value ([5]; human) of the same compound?
A: 4.2%

Q: What about the “Candida Intertrigo: No. of patients with treatment-related AE” value ([5]; human) of the same compound?
A: 1

Q: What about the “Confusion: % of patients with treatment-related AE” value ([5]; human) of the same compound?
A: 8.3%

Q: And the “Confusion: No. of patients with treatment-related AE” value ([5]; human)?
A: 2

Q: And the “Constipation: % of patients with treatment-related AE” value ([5]; human)?
A: 12.5%

Q: And the “Constipation: No. of patients with treatment-related AE” value ([5]; human)?
A: 3

Q: What about the “DVT: % of patients with treatment-related AE” value ([5]; human) of the same compound?
A: 4.2%

Q: And the “DVT: No. of patients with treatment-related AE” value ([5]; human)?
A: 1

Q: What about the “Diarrhea: % of patients with treatment-related AE” value ([5]; human) of the same compound?
A: 75%

Q: What about the “Diarrhea: No. of patients with treatment-related AE” value ([5]; human) of the same compound?
A: 18

Q: What about the “Dysgeusia: % of patients with treatment-related AE” value ([5]; human) of the same compound?
A: 4.2%

Q: What about the “Dysgeusia: No. of patients with treatment-related AE” value ([5]; human) of the same compound?
A: 1

Q: And the “Dyspepsia: % of patients with treatment-related AE” value ([5]; human)?
A: 4.2%

Q: What about the “Dyspepsia: No. of patients with treatment-related AE” value ([5]; human) of the same compound?
A: 1

Q: What about the “Dyspnea: % of patients with treatment-related AE” value ([5]; human) of the same compound?
A: 4.2%

Q: What about the “Dyspnea: No. of patients with treatment-related AE” value ([5]; human) of the same compound?
A: 1

Q: What about the “Edema limbs: % of patients with treatment-related AE” value ([5]; human) of the same compound?
A: 16.7%

Q: And the “Edema limbs: No. of patients with treatment-related AE” value ([5]; human)?
A: 4

Q: What about the “Fatigue: % of patients with treatment-related AE” value ([5]; human) of the same compound?
A: 25%

Q: And the “Fatigue: No. of patients with treatment-related AE” value ([5]; human)?
A: 6

Q: What about the “Fever: % of patients with treatment-related AE” value ([5]; human) of the same compound?
A: 8.3%

Q: And the “Fever: No. of patients with treatment-related AE” value ([5]; human)?
A: 2

Q: And the “GERD: % of patients with treatment-related AE” value ([5]; human)?
A: 4.2%

Q: And the “GERD: No. of patients with treatment-related AE” value ([5]; human)?
A: 1

Q: And the “Gait disturbance: % of patients with treatment-related AE” value ([5]; human)?
A: 4.2%

Q: And the “Gait disturbance: No. of patients with treatment-related AE” value ([5]; human)?
A: 1

Q: What about the “Gastroenteritis: % of patients with treatment-related AE” value ([5]; human) of the same compound?
A: 4.2%

Q: What about the “Gastroenteritis: No. of patients with treatment-related AE” value ([5]; human) of the same compound?
A: 1

Q: What about the “Headache: % of patients with treatment-related AE” value ([5]; human) of the same compound?
A: 4.2%

Q: And the “Headache: No. of patients with treatment-related AE” value ([5]; human)?
A: 1

Q: And the “Hypokalemia: % of patients with treatment-related AE” value ([5]; human)?
A: 4.2%

Q: And the “Hypokalemia: No. of patients with treatment-related AE” value ([5]; human)?
A: 1

Q: What about the “Ingrown nail: % of patients with treatment-related AE” value ([5]; human) of the same compound?
A: 4.2%

Q: And the “Ingrown nail: No. of patients with treatment-related AE” value ([5]; human)?
A: 1

Q: And the “Insomnia: % of patients with treatment-related AE” value ([5]; human)?
A: 4.2%

Q: What about the “Insomnia: No. of patients with treatment-related AE” value ([5]; human) of the same compound?
A: 1

Q: And the “Memory impairment: % of patients with treatment-related AE” value ([5]; human)?
A: 4.2%

Q: What about the “Memory impairment: No. of patients with treatment-related AE” value ([5]; human) of the same compound?
A: 1

Q: And the “Metabolic acidosis: % of patients with treatment-related AE” value ([5]; human)?
A: 4.2%

Q: What about the “Metabolic acidosis: No. of patients with treatment-related AE” value ([5]; human) of the same compound?
A: 1

Q: What about the “Metabolic encephalopathy: % of patients with treatment-related AE” value ([5]; human) of the same compound?
A: 4.2%

Q: What about the “Metabolic encephalopathy: No. of patients with treatment-related AE” value ([5]; human) of the same compound?
A: 1

Q: What about the “Nausea: % of patients with treatment-related AE” value ([5]; human) of the same compound?
A: 37.5%

Q: What about the “Nausea: No. of patients with treatment-related AE” value ([5]; human) of the same compound?
A: 9

Q: And the “Palmar-Plantar Erythrodysesthesia: % of patients with treatment-related AE” value ([5]; human)?
A: 4.2%

Q: And the “Palmar-Plantar Erythrodysesthesia: No. of patients with treatment-related AE” value ([5]; human)?
A: 1

Q: And the “Paresthesia (lower extremities): % of patients with treatment-related AE” value ([5]; human)?
A: 4.2%

Q: And the “Paresthesia (lower extremities): No. of patients with treatment-related AE” value ([5]; human)?
A: 1

Q: What about the “Pruritus: % of patients with treatment-related AE” value ([5]; human) of the same compound?
A: 16.7%

Q: And the “Pruritus: No. of patients with treatment-related AE” value ([5]; human)?
A: 4

Q: And the “Rash acneiform: % of patients with treatment-related AE” value ([5]; human)?
A: 37.5%

Q: What about the “Rash acneiform: No. of patients with treatment-related AE” value ([5]; human) of the same compound?
A: 9

Q: And the “Rash maculo-papular: % of patients with treatment-related AE” value ([5]; human)?
A: 20.8%

Q: And the “Rash maculo-papular: No. of patients with treatment-related AE” value ([5]; human)?
A: 6

Q: And the “Rash: % of patients with treatment-related AE” value ([5]; human)?
A: 25%

Q: What about the “Rash: No. of patients with treatment-related AE” value ([5]; human) of the same compound?
A: 6

Q: What about the “Skin atrophy: % of patients with treatment-related AE” value ([5]; human) of the same compound?
A: 4.2%

Q: And the “Skin atrophy: No. of patients with treatment-related AE” value ([5]; human)?
A: 1

Q: And the “Skin ulceration: % of patients with treatment-related AE” value ([5]; human)?
A: 4.2%

Q: What about the “Skin ulceration: No. of patients with treatment-related AE” value ([5]; human) of the same compound?
A: 1

Q: And the “Thrombocytopenia: % of patients with treatment-related AE” value ([5]; human)?
A: 4.2%

Q: And the “Thrombocytopenia: No. of patients with treatment-related AE” value ([5]; human)?
A: 1

Q: What about the “Vomiting: % of patients with treatment-related AE” value ([5]; human) of the same compound?
A: 37.5%

Q: What about the “Vomiting: No. of patients with treatment-related AE” value ([5]; human) of the same compound?
A: 9

Q: And the “Mucositis oral: % of patients with treatment-related AE” value ([5]; human, po)?
A: 20.8%

Q: And the “Mucositis oral: No. of patients with treatment-related AE” value ([5]; human, po)?
A: 5

Q: What about the “Recommended phase II dose” value ([5]; human, po) of the same compound?
A: 280 mg

Q: And the “Thrush (oral): % of patients with treatment-related AE” value ([5]; human, po)?
A: 4.2%

Q: And the “Thrush (oral): No. of patients with treatment-related AE” value ([5]; human, po)?
A: 1

Q: And the Dose-limiting toxicities [5]?
A: no dose-limiting toxicities
